Common to all, as to type: cell-based
In assay [1] the test system is T47D cells. Nature of the assay: Quantitative analysis of viable cells (viability/growth) of BCCs in 3D mono-culture or indirect co-culture with hFOB. To be noted: T47D in 3D culture treated with recombinant human cytokines, vs untreated T47D mono-culture; day 15. As for the experimental part: Significant differences were assessed by ANOVA with Tukey's multiple comparisons test, where differences are shown for comparison between controls and multiple conditions at day 15 time point (*p<0.05, **p<0.01; ***p<0.001). Data are shown represent mean±SD (n=3).

In assay [2] the test system is T47D cells. In words: EdU proliferation assay in 3D mono-culture or indirect co-culture with hFOB. The settings on record: T47D in 3D culture, day 15, vs untreated T47D mono-culture. The method, then: Indirect co-culture also enables facile switching to elucidate effects of transition from dormancy-promoting to growth-promoting microenvironments. Breast cancer cell proliferation assessment of over time culture with different conditions in 3D hydrogels: 5-ethynyl-2′-deoxyuridine (EdU) proliferation assay was measured for both T47D & BT474 cells at each time point during 15 days of culture. a & b, Quantification of proliferative (EdU^+ve) T47D & BT474 cells alone (control) or in indirect co-culture (#) with different BM niche cells (hFOB or hMSC). […] Significant differences assessed by Student's two-sided t-test, where differences shown for comparison between time points in mono and co-culture conditions (*p<0.05, **p<0.01; ***p<0.001). e, Quantitative analysis of metabolic activity with AlamarBlue assay of T47D cells after insert exchange at day 10 (fold change relative to day 3). Statistical differences determined with ANOVA with Tukey's multiple comparisons test, where differences are shown for comparison between co-culture conditions on day 15 and 20 (*p<0.05, **p<0.01; ***p<0.001). Data are shown represent mean±SD (n=3).
(§1) Significant differences assessed by ANOVA with Tukey's multiple comparisons test, where differences are shown for comparison between controls and multiple conditions at day 15 time point (*p<0.05, **p<0.01; ***p<0.001). Data are shown represent mean±SD (n=3).

In assay [3] the test system is T47D cells. Nature of the assay: Quantitative analysis of LC3B+ve puncta cells (autophagy) by immunofluorescent staining in 3D culture. The settings on record: for autophagy (LC3B+ve puncta cells) with cytokine treatment: T47D in 3D culture, day 15, vs untreated T47D mono-culture.
Description: Observations made with the in vitro model system shown here are consistent with in vivo observations in bone in a preclinical model for studying breast cancer dormancy at metastatic sites. a & b, Quantitative analysis of cells positive for LC3B^+ve puncta in images of immunofluorescent staining of autophagic protein (LC3B), cytoplasm (Phalloidin), and DNA (Hoechst) of T47D and BT474 cells in 3D mono-culture or indirect co-culture (#) with different BM niche cells (hFOB or hMSC) analyzed. Induction of autophagy observed in the indirect co-culture condition for T47D or BT474 with hFOB at Day 10 & 15, but not in mono-culture of T47D or co-culture of T47D with hMSC cells. […] In the case of T47D #hMSC insert exchange to #hFOB, induction of autophagy was observed upon insert exchange with similar observations for BT474 cells in these co-cultures. Significant differences assessed by Student's two-sided t-test, where differences shown for comparison between time points in co-culture conditions (*p<0.05, **p<0.01; ***p<0.001). Data are shown represent mean±SD (n=3).
as §1
Significant differences assessed by one-way ANOVA with Tukey's multiple comparisons test, where differences are shown for comparison between multiple time points (*p<0.05, **p<0.01; ***p<0.001). Data are shown represent mean±SD (n=3).

For the compound TNFa, the “growth (viable cells) with cytokine treatment” value in assay [1] is reported as “significant growth inhibition”. Also, the “proliferation rate (EdU+ve cells) with cytokine treatment” value in assay [2] is reported as “significantly decreased the proliferation rate”. Also, the “autophagy (LC3B+ve puncta cells) with cytokine treatment” value in assay [3] is on record as “induced autophagosome formation”.
For MCP1: recombinant human MCP1 cytokine, in that order: “significant growth inhibition”, “significantly decreased the proliferation rate” and “induced autophagosome formation”.
Consider `CCN(CCO)CCCC(C)Nc1ccnc2cc(Cl)ccc12` (stereo not shown) [HCQ, hydroxychloroquine, reference compound], for which the “autophagy (LC3B+ve puncta cells) with autophagy inhibitor” value in assay [3] (T47D #hFOB co-culture, 12.5 pg/mL, 2 doses (Day 6 and Day 14), observation over 25 days) is reported as “inhibition of autophagy”.
